“Also recorded” adds a separate entry of the source.
Experiments:
MIA-MIA interaction [1] = target: T1, MIA-MIA interaction (Homo sapiens, UniProt Q16674); experiment: heterogeneous transition metal-based fluorescence polarization (HTFP) assay of MIA dimerization; type: binding; settings: FIG. 3
T1 sequence (Q16674 25-131): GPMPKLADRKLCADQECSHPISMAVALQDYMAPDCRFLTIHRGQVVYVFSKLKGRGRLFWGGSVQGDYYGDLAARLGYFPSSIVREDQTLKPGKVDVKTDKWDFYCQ
Procedure: The dimerization of the MIA protein is for example measured by a heterogeneous transition metal-based fluorescence polarization (HTFP) assay, wherein the ratio P/P0 is measured. P is the fluorescence polarization signal of a MIA protein labeled with a transition metal complex in the presence of substrate bound MIA-protein and of a compound to be tested. P0 is the fluorescence polarization signal of free MIA-protein labeled with said luminescent transition metal complex in the absence of substrate bound MIA-protein and in the absence of the compound. In the absence of the compound, usually, the labeled MIA-protein would interact with the substrate bound MIA-protein, which, in turn, would contribute to a reduction in rotational mobility of the labeled MIA-protein, and therefore, the fluorescence polarization signal would increase upon such interaction. If, additionally, a compound is present that interferes with such interaction, no or little dimerization/aggregation occurs and no or little increase in fluorescence polarization signal would be detected. The smaller or even more negative P/P0 is, the stronger such interference with dimer formation and aggregation is, and the better such compound prevents or breaks up dimerization/aggregation of MIA protein. In an alternative embodiment, binding of the compound to MIA protein is determined by NMR, e.g., heteronuclear NMR, e.g., ^15N-^1H-HSQC-NMR.
All listed compounds that were screened for their ability to interfere with the MIA-MIA interaction (Table 1) in a heterogeneous transition metal-based fluorescence polarization (HTFP) assay previously developed (Riechers, A., et al., Heterogeneous transition metal-based fluorescence polarization (HTFP) assay for probing protein interactions. Biotechniques, 2009. 47(4): p. 837-44). […] The molecular structures of the compounds showing interference with the MIA-MIA interaction in the HTFP assay are shown in Table 1.

[2] = test system: human Mel-Im melanoma cells; experiment: Boyden chamber migration assay; type: cell-based; settings: compound 1 μM, MIA 200 ng/mL, FIG. 4
Procedure: The melanoma cell line Mel-Im, established from a human metastatic bioptic sample (generous gift from Dr. Johnson, University of Munich, Germany) was used for the Boyden chamber migration experiments. All cells were maintained in DMEM (PAA, Pasching, Germany) supplemented with penicillin (400 U/mL), streptomycin (50 μg/mL), L-glutamine (300 μg/mL) and 10% fetal calf serum (Pan Biotech GmbH, Aidenbach, Germany) and split in a 1:6 ratio every three days. Migration assays were performed in Boyden Chambers containing polycarbonate filters with […] (Neuro Probe, Gaithersburg, Md., USA) essentially as described. MIA was added to the cell suspension at a final concentration of 200 ng/mL. Selected compounds were used at a final concentration of 1 μM. Experiments were carried out in triplicates and repeated at least three times.

human fibroblasts [3] = experiment: proliferation of human fibroblasts; type: cell-based; settings: 7.8 μM, in vitro, FIG. 5A
Procedure: (§1) In order to assess whether compounds of the present invention show any adverse effects on normal cells, human fibroblasts and kidney cells were treated with the compounds 1, 2, 3, 4, 5, and 6, respectively, in vitro at a concentration of 7.8 μM in analogy to previous studies (Schmidt, J., et al., Targeting melanoma metastasis and immunosuppression with a new mode of melanoma inhibitory activity (MIA) protein inhibition. PLoS One, 2012. 7(5): p. e37941; Riechers, A., et al., Heterogeneous transition metal-based fluorescence polarization (HTFP) assay for probing protein interactions. Biotechniques, 2009. 47(4): p. 837-44).

kidney cells HEK-293 [4] = experiment: proliferation of kidney cells; type: cell-based, human; settings: 7.8 μM, in vitro, HEK-293, FIG. 5C
Procedure: as §1

human fibroblasts [5] = experiment: cellular attachment of human fibroblasts; type: cell-based; settings: 7.8 μM, in vitro, FIG. 5B
Procedure: as §1

kidney cells HEK-293 [6] = experiment: cellular attachment of kidney cells; type: cell-based, human; settings: 7.8 μM, in vitro, HEK-293, FIG. 5D
Procedure: as §1

[7] = test system: human melanoma cell line Mel Im; experiment: proliferation of melanoma cell line Mel Im; type: cell-based; settings: FIG. 6
MIA-MIA interaction [8] = target: T1, MIA-MIA interaction; settings: disclosed in WO 2011/113604; cited from earlier work

fluorescence polarization of Ru-(bpy)3 labelled MIA (interference with the MIA-MIA interaction) (MIA-MIA interaction [1])	effect on cellular attachment of human fibroblasts (human fibroblasts [5])	effect on cellular attachment of kidney cells (kidney cells HEK-293 [6])	Molecule	MIA activity on melanoma cell migration [2]	effect on proliferation of human fibroblasts (human fibroblasts [3])	effect on proliferation of kidney cells (kidney cells HEK-293 [4])	proliferation of the human melanoma cell line Mel Im after treatment [7]	blocking of the MIA-MIA interaction (MIA-MIA interaction [8])
significant decreases	no negative effects	no negative effects	CCC(C)N1CC(=O)C(c2nc3ccccc3[nH]2)=C1N (stereo not shown) [Compound 1, 5-amino-4-(1H-1,3-benzodiazol-2-yl)-1-(butan-2-yl)-2,3-dihydro-1H-pyrrol-3-one]	reduction; also recorded: inhibition	no negative effects	no negative effects	significant decrease; also recorded: inhibition	
significant decreases	no negative effects	no negative effects	CCCCCNC(=O)Cc1cc(=O)[nH]c(=O)[nH]1 [Compound 3, 2-(2,6-dioxo-1,2,3,6-tetrahydropyrimidin-4-yl)-N-Pentylacetamide]	reduction; also recorded: inhibition	no negative effects	no negative effects	could not be found	
significant decreases	no negative effects	no negative effects	CC(=O)c1c(C)cn(CC(O)CN2CCNCC2)c1C (stereo not shown) [Compound 4, 1-{1-[2-hydroxy-3-(piperazin-1-yl)propyl]-2,4-dimethyl-1H-pyrrol-3-yl}ethan-1-one]	reduction	no negative effects	no negative effects	could not be found	
significant decreases	no negative effects	no negative effects	CCCCNC(=O)c1c(O)nc2c(C)cccn2c1=O [Compound 6, N-butyl-2-hydroxy-9-methyl-4-oxo-4H-pyrido[1,2-a]pyrimidine-3-carboxamide]	reduction	no negative effects	no negative effects	could not be found	

Further lines, the molecule ahead of its results:

Molecule	fluorescence polarization of Ru-(bpy)3 labelled MIA (interference with the MIA-MIA interaction) (MIA-MIA interaction [1])	effect on cellular attachment of human fibroblasts (human fibroblasts [5])	effect on cellular attachment of kidney cells (kidney cells HEK-293 [6])	MIA activity on melanoma cell migration [2]	effect on proliferation of human fibroblasts (human fibroblasts [3])	effect on proliferation of kidney cells (kidney cells HEK-293 [4])	proliferation of the human melanoma cell line Mel Im after treatment [7]	blocking of the MIA-MIA interaction (MIA-MIA interaction [8])
CS(=O)(=O)NCC#CCN1CCc2ccccc2C1 [Compound 2, N-[4-(1,2,3,4-tetrahydroisoquinolin-2-yl)but-2-yn-1-yl]methanesulfonamide]	significant decreases	no negative effects	no negative effects	reduction; also recorded: inhibition	no negative effects	no negative effects	could not be found	
COc1ccc2[nH]c(CN3CCNCC3)nc2c1 [Compound 5, 5-methoxy-2-(piperazin-1-ylmethyl)-1H-1,3-Benzodiazole]	significant decreases	no negative effects	no negative effects	reduction	no negative effects	no negative effects	could not be found	
AR71: a peptide having the amino acid sequence FHWRYPLPLPGQ (SEQ ID NO:1)								able to block the MIA-MIA interaction

Reference: patent US10828281B2, “Non-hydrophobic compounds for use in treating metastasis and/or cartilage defect” (Friedrich-Alexander-Universität Erlangen-Nürnberg, priority 2015, dated 2020)
